Measurements: DBAASP
≈ marks a conversion by molar mass, not a printed value.

What was measured:
Assay in all cases: ≥ marks a high value that may be exact or a test limit, other limits are often not marked, values filed in µg/mL are converted to µM
[1] = test system: Escherichia coli C25
[2] = test system: Staphylococcus aureus ATCC 25923
[3] = test system: Aeromonas hydrophila
[4] = test system: Bacillus cereus
[5] = test system: Bacillus subtilis
[6] = test system: Candida albicans
[7] = test system: Corynebacterium glutamicum
[8] = test system: Cryptococcus neoformans
[9] = test system: Escherichia coli
[10] = test system: Pseudomonas aeruginosa
[11] = test system: Pseudomonas fluorescens
[12] = test system: Shigella flexneri
[13] = test system: Staphylococcus aureus
[14] = test system: Staphylococcus epidermidis
[15] = test system: Vibrio alginolyticus
[16] = test system: Vibrio parahaemolyticus
[17] = test system: Acinetobacter baumannii MTCC 9829
[18] = test system: Alcaligenes faecalis MTCC 1937
[19] = test system: Alkalihalobacillus alcalophilus MTCC 860
[20] = test system: Bordetella bronchiseptica MTCC 6837
[21] = test system: Citrobacter freundii MTCC 1658
[22] = test system: Citrobacter koseri MTCC 1657
[23] = test system: Corynebacterium glutamicum MTCC 2679
[24] = test system: Enterococcus faecalis MTCC 439
[25] = test system: Escherichia coli K12 MG1655
[26] = test system: Haemophilus influenzae MTCC 621
[27] = test system: Klebsiella aerogenes MTCC 111
[28] = test system: Klebsiella oxytoca MTCC 2275
[29] = test system: Klebsiella pneumoniae MTCC 7407
[30] = test system: Pluralibacter gergoviae MTCC 3826
[31] = test system: Proteus mirabilis MTCC 3158
[32] = test system: Proteus vulgaris MTCC 1771
[33] = test system: Pseudomonas aeruginosa MTCC 3542
[34] = test system: Salmonella enterica MTCC 9844
[35] = test system: Salmonella enterica subsp. enterica serovar Typhimurium ATCC 14028
[36] = test system: Shigella boydii MTCC 11947
[37] = test system: Shigella flexneri MTCC 1457
[38] = test system: Staphylococcus aureus MTCC 3160
[39] = test system: Staphylococcus haemolyticus MTCC 3383
[40] = test system: Stenotrophomonas maltophilia MTCC 1890
[41] = test system: Vibrio cholerae MTCC 3904
[42] = test system: Escherichia coli ATCC 25922
[43] = test system: Pseudomonas aeruginosa 21328
[44] = test system: Pseudomonas aeruginosa 25349
[45] = test system: Pseudomonas aeruginosa ATCC 27853
[46] = test system: Pseudomonas aeruginosa CICC 10419
[47] = test system: Pseudomonas aeruginosa CICC 11411
[48] = test system: Pseudomonas aeruginosa CICC 11421
[49] = test system: Pseudomonas aeruginosa CICC 11431
[50] = test system: Pseudomonas aeruginosa CICC 21625
[51] = test system: Pseudomonas aeruginosa CICC 21630
[52] = test system: Staphylococcus aureus ATCC 29213

Q: With `CC[C@H](C)[C@H](NC(=O)CNC(=O)[C@H](CCCN=C(N)N)NC(=O)[C@@H](NC(=O)[C@@H](NC(=O)[C@H](CCCN=C(N)N)NC(=O)[C@@H](NC(=O)[C@@H](NC(=O)[C@@H](N)CCCCN)[C@@H](C)CC)[C@@H](C)CC)C(C)C)[C@@H](C)CC)C(=O)N[C@H](C(=O)N[C@@H](CCCN=C(N)N)C(=O)N[C@@H](CCCN=C(N)N)C(=O)N[C@@H](CCCN=C(N)N)C(N)=O)[C@@H](C)CC` [KIIRVIRGIIRRR] as the molecule, how does the MIC [1] read?
A: Its MIC is 9.5 µM (≈ 15.7 µg/mL).

Q: And the MIC [2]?
A: The MIC was 9.5 µM (≈ 15.7 µg/mL).

Q: With `CC(C)C[C@H](NC(=O)[C@H](CO)NC(=O)[C@H](CC(C)C)NC(=O)[C@H](Cc1cnc[nH]1)NC(=O)[C@H](CO)NC(=O)[C@@H](N)CCC(N)=O)C(=O)N[C@H]1CSSC[C@@H](C(=O)N[C@@H](CCCCN)C(=O)N[C@@H](Cc2ccccc2)C(=O)O)NC(=O)[C@@H]2CSSC[C@@H]3NC(=O)[C@H](CSSC[C@H](NC(=O)[C@H](CC(N)=O)NC3=O)C(=O)N[C@H]3CSSC[C@H](NC(=O)CNC(=O)[C@H](CCCCN)NC(=O)[C@H](Cc4ccc(O)cc4)NC(=O)[C@H](CCCN=C(N)N)NC(=O)[C@H](CC(N)=O)NC3=O)C(=O)NCC(=O)N[C@@H](Cc3ccccc3)C(=O)N2)NC(=O)[C@H](Cc2c[nH]c3ccccc23)NC(=O)[C@H](CCCN=C(N)N)NC1=O` [QSHLSLCRWCCNCCNRYKGCGFCCKF] as the molecule, how does the MIC [3] read?
A: The MIC was no less than 50 µM.

Q: And the MIC [4]?
A: Its MIC is no less than 50 µM.

Q: And the MIC [5]?
A: Its MIC is 8.84 µM (≈ 27 µg/mL).

Q: What about the MIC [6] of the same molecule?
A: The MIC was greater than 50 µM.

Q: And the MIC [7]?
A: The MIC was 8.84 µM (≈ 27 µg/mL).

Q: What about the MIC [8] of the same molecule?
A: The MIC was no less than 50 µM.

Q: What about the MIC [9] of the same molecule?
A: Its MIC is greater than 50 µM.

Q: What about the MIC [10] of the same molecule?
A: The MIC was 35.4 µM (≈ 108 µg/mL).

Q: And the MIC [11]?
A: Its MIC is 17.7 µM (≈ 54 µg/mL).

Q: What about the MIC [12] of the same molecule?
A: Its MIC is no less than 50 µM.

Q: And the MIC [13]?
A: Its MIC is greater than 50 µM.

Q: What about the MIC [14] of the same molecule?
A: The MIC was no less than 50 µM.

Q: And the MIC [15]?
A: Its MIC is no less than 50 µM.

Q: And the MIC [16]?
A: Its MIC is no less than 50 µM.

Q: What does the source list for `CC[C@H](C)[C@H](NC(=O)[C@@H](NC(=O)[C@H](CCC(N)=O)NC(=O)[C@H](CCCN=C(N)N)NC(=O)[C@H](C)NC(=O)[C@H](C)NC(=O)[C@H](C)NC(=O)[C@H](Cc1c[nH]c2ccccc12)NC(=O)[C@@H](N)CCC(=O)O)C(C)C)C(=O)N[C@H](C(=O)N[C@@H](Cc1cnc[nH]1)C(=O)N[C@@H](C)C(=O)N[C@H](C(=O)N[C@@H](CCCN=C(N)N)C(=O)N[C@@H](CCCCN)C(=O)N[C@@H](Cc1ccc(O)cc1)C(=O)O)[C@@H](C)O)[C@@H](C)CC` [EWAAARQVIIHATRKY]?
A: MIC [17]: ≥ 66.9 µM; MIC [18]: ≥ 66.9 µM; MIC [19]: ≥ 66.9 µM; MIC [20]: ≥ 66.9 µM; MIC [21]: ≥ 66.9 µM; MIC [22]: ≥ 66.9 µM; MIC [23]: ≥ 33.5 µM; MIC [24]: ≥ 66.9 µM; MIC [25]: ≥ 66.9 µM; MIC [26]: ≥ 66.9 µM; MIC [27]: ≥ 66.9 µM; MIC [28]: ≥ 66.9 µM; MIC [29]: ≥ 66.9 µM; MIC [30]: ≥ 66.9 µM; MIC [31]: ≥ 66.9 µM; MIC [32]: ≥ 66.9 µM; MIC [33]: ≥ 66.9 µM; MIC [34]: ≥ 66.9 µM; MIC [35]: > 66.9 µM; MIC [36]: ≥ 66.9 µM; MIC [37]: ≥ 66.9 µM; MIC [38]: ≥ 66.9 µM; MIC [39]: ≥ 66.9 µM; MIC [40]: ≥ 66.9 µM; MIC [41]: ≥ 66.9 µM

Q: With `CC(C)C[C@H](NC(=O)[C@H](CCCN=C(N)N)NC(=O)[C@H](CCCN=C(N)N)NC(=O)[C@H](CC(C)C)NC(=O)[C@H](Cc1c[nH]c2ccccc12)NC(=O)[C@H](CCCN=C(N)N)NC(=O)[C@H](CCCN=C(N)N)NC(=O)[C@H](CCCN=C(N)N)NC(=O)[C@H](CC(C)C)NC(=O)[C@H](CCCN=C(N)N)NC(=O)[C@H](CCCN=C(N)N)NC(=O)[C@@H](N)CC(C)C)C(=O)N[C@@H](CCCN=C(N)N)C(=O)N[C@@H](CCCN=C(N)N)C(=O)N[C@@H](CCCN=C(N)N)C(N)=O` [LRRLRRRWLRRLRRR] as the molecule, how does the MIC [42] read?
A: The MIC was greater than 57.7 µM.

Q: And the MIC [43]?
A: Its MIC is no less than 57.7 µM.

Q: What about the MIC [44] of the same molecule?
A: Its MIC is 20.4 µM (≈ 45.2 µg/mL).

Q: What about the MIC [45] of the same molecule?
A: Its MIC is 14.4 µM (≈ 32 µg/mL).

Q: What about the MIC [46] of the same molecule?
A: Its MIC is no less than 115 µM.

Q: And the MIC [47]?
A: Its MIC is no less than 57.7 µM.

Q: And the MIC [48]?
A: The MIC was no less than 115 µM.

Q: What about the MIC [49] of the same molecule?
A: The MIC was 28.8 µM (≈ 64 µg/mL).

Q: What about the MIC [50] of the same molecule?
A: Its MIC is 28.8 µM (≈ 64 µg/mL).

Q: And the MIC [51]?
A: The MIC was 14.4 µM (≈ 32 µg/mL).

Q: And the MIC [52]?
A: Its MIC is 28.8 µM (≈ 64 µg/mL).
